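Cells were grown in 96-well plates and exposed to each compound for 48 hours at five concentrations; endpoints were interpolated linearly between bracketing concentrations, or set to the highest concentration if not reached. GI50 is the concentration that inhibits growth by half.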 The source made the active and inactive calls. Cut-off read from the data, not from the text of the source: active = GI50 up to about 1.1 µM and inactive = higher.
Key:
Assay in all cases: inhibition of tumour cell growth, NCI panel, 48 h
LOX IMVI = tested on: LOX IMVI
DU-145 = tested on: DU-145
HT-29 = tested on: HT-29
SK-OV-3 = tested on: SK-OV-3
OVCAR-3 = tested on: OVCAR-3
SK-MEL-5 = tested on: SK-MEL-5
SK-MEL-28 = tested on: SK-MEL-28
NCI-H23 = tested on: NCI-H23
RPMI-8226 = tested on: RPMI-8226
HOP-62 = tested on: HOP-62
ACHN = tested on: ACHN
786-0 = tested on: 786-0
UACC-62 = tested on: UACC-62
PC-3 = tested on: PC-3
K562 = tested on: K562
NCI-H522 = tested on: NCI-H522
RXF 393 = tested on: RXF 393
IGROV-1 = tested on: IGROV-1
COLO 205 = tested on: COLO 205
A498 = tested on: A498

Compound	GI50 (LOX IMVI)	GI50 (DU-145)	GI50 (HT-29)	GI50 (SK-OV-3)	GI50 (OVCAR-3)	GI50 (SK-MEL-5)	GI50 (SK-MEL-28)	GI50 (NCI-H23)	GI50 (RPMI-8226)	GI50 (HOP-62)	GI50 (ACHN)	GI50 (786-0)	GI50 (UACC-62)	GI50 (PC-3)	GI50 (K562)	GI50 (NCI-H522)	GI50 (RXF 393)	GI50 (IGROV-1)	GI50 (COLO 205)	GI50 (A498)
CCC1(CC)C(=O)NN(C(=O)c2ccccc2)C1=O	> 100 µM (inactive)	> 100 µM (inactive)	> 100 µM (inactive)	> 100 µM (inactive)	> 100 µM (inactive)	> 100 µM (inactive)	> 100 µM (inactive)	> 100 µM (inactive)	> 100 µM (inactive)	> 100 µM (inactive)	> 100 µM (inactive)	> 100 µM (inactive)	> 100 µM (inactive)	> 100 µM (inactive)	> 100 µM (inactive)	> 100 µM (inactive)	> 100 µM (inactive)	> 100 µM (inactive)	> 100 µM (inactive)	
C=CCN(CC=C)Cn1c(=S)sc2ccccc21	17.8 µM (inactive)	> 100 µM (inactive)		91.4 µM (inactive)	> 100 µM (inactive)	28.8 µM (inactive)	37.5 µM (inactive)	> 100 µM (inactive)		> 100 µM (inactive)	> 100 µM (inactive)	> 100 µM (inactive)	55.1 µM (inactive)	> 100 µM (inactive)		18.7 µM (inactive)	> 100 µM (inactive)	36.6 µM (inactive)	48.6 µM (inactive)	
Cc1c2cnccc2nc2[nH]c3ccncc3c12	2.29 µM (inactive)	10.7 µM (inactive)	5.6 µM (inactive)	21.5 µM (inactive)	10.4 µM (inactive)	5.69 µM (inactive)	32.4 µM (inactive)	1.44 µM (inactive)	2.24 µM (inactive)	2.17 µM (inactive)	1.59 µM (inactive)	3.24 µM (inactive)	7 µM (inactive)	4.56 µM (inactive)	10.8 µM (inactive)	3.91 µM (inactive)		2.85 µM (inactive)	8.49 µM (inactive)	5.47 µM (inactive)
COc1cc2c(/C=C3/C(=O)Nc4ccc(O)cc43)c(Cl)n(Cc3ccccc3)c2cc1C	0.558 µM (active)	1.16 µM (inactive)	0.75 µM (active)	0.817 µM (active)	0.234 µM (active)	0.266 µM (active)	3.56 µM (inactive)	0.618 µM (active)	0.687 µM (active)		0.628 µM (active)	0.222 µM (active)	2.37 µM (inactive)	0.897 µM (active)	0.583 µM (active)	1.22 µM (inactive)	0.352 µM (active)	0.682 µM (active)	1.04 µM (active)	
Cc1ccc(/C=N/Nc2ccc3ccccc3n2)s1	17.1 µM (inactive)	> 10 µM (inactive)	7.46 µM (inactive)	30.2 µM (inactive)	5.58 µM (inactive)	9.4 µM (inactive)	17.2 µM (inactive)	18.6 µM (inactive)	14.2 µM (inactive)	20.8 µM (inactive)	17.3 µM (inactive)	18.8 µM (inactive)	34.8 µM (inactive)	13.2 µM (inactive)	16.9 µM (inactive)	15.7 µM (inactive)	37.7 µM (inactive)	16.3 µM (inactive)	12.9 µM (inactive)	
CC1=CC(C)(C)[C@H]2O[C@@]3(O)C[C@]4(C)[C@H]5C[C@@](C(C)C)(O[C@H]4c4ccoc4)O[C@H]4[C@]5(C3)O[C@@]1(O)[C@]24O	> 100 µM (inactive)	> 100 µM (inactive)	> 100 µM (inactive)	> 100 µM (inactive)	> 100 µM (inactive)	44.2 µM (inactive)	81.8 µM (inactive)	> 100 µM (inactive)	> 100 µM (inactive)	23.5 µM (inactive)	> 100 µM (inactive)	89.1 µM (inactive)	> 100 µM (inactive)	> 100 µM (inactive)	> 100 µM (inactive)	5.26 µM (inactive)	> 100 µM (inactive)	> 100 µM (inactive)	> 100 µM (inactive)	

From ChEMBL document CHEMBL1201862, “PubChem BioAssay data set” (2004)
